One may read the Ki as a dissociation constant, usually derived from enzyme kinetics or from competition with a known ligand. High values mean weaker binding, low ones tighter binding. By pA2 is commonly meant a measure of antagonist potency on a negative log scale.

The subject of assay [1] is Cavia porcellus. As to the kind of experiment: Tested for the ability to inhibit substance P induced bronchoconstriction, in guinea pig, after intravenous administration. The inhibitory dose at 3 minutes, was reported. Type of assay: functional. The conditions noted are these: 0.05 h, read-out: ID50 (the source's name).
The species entered for assay [2] is Cavia porcellus. Nature of the assay: Inhibition of capsaicin-induced plasma extravasation in guinea pig bronchi. It is filed as functional.
A further assay concerns the target Substance-P receptor (Homo sapiens, UniProt P25103). As to the kind of experiment: Binding affinity for NK-1 receptor was determined in a radioligand binding assay using IM9 human lymphoblastoma cell line.
Assay [3] has as its target T1, Substance-K receptor (Oryctolagus cuniculus, UniProt P79218).
T1 sequence (P79218 whole entry): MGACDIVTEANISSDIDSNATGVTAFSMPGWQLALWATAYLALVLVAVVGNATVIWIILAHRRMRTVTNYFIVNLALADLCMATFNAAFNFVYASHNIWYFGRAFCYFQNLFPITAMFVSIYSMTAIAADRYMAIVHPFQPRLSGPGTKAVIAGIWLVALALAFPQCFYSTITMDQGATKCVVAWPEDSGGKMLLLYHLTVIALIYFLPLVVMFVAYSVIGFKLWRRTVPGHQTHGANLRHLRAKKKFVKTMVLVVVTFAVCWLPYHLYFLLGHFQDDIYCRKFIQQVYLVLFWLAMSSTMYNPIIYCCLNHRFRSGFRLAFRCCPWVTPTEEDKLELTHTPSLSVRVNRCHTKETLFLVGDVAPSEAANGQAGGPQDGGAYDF
Nature of the assay: […] for NK-2 receptor was determined in vitro using isolated rabbit pulmonary artery.

Assay [4] has as its target T2, Neuromedin-K receptor (Rattus norvegicus, UniProt P16177).
T2 sequence (P16177 whole entry): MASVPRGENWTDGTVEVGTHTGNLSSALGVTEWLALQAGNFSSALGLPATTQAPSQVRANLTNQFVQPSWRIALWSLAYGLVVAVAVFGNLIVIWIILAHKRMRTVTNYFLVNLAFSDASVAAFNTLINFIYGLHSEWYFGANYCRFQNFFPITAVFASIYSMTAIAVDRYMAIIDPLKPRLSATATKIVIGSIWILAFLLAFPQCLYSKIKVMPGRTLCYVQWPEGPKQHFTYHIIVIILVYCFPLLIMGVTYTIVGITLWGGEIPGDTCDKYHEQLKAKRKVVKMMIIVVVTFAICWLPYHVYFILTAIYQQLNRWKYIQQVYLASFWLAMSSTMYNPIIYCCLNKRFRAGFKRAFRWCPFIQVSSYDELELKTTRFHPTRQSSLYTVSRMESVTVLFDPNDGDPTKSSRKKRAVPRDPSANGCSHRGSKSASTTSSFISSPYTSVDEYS
As to the kind of experiment: […] for NK-3 receptor was determined in vitro using isolated rat portal vein.

For assay [5], the target named is T3, Substance-K receptor (Homo sapiens, UniProt P21452).
T3 sequence (P21452 whole entry): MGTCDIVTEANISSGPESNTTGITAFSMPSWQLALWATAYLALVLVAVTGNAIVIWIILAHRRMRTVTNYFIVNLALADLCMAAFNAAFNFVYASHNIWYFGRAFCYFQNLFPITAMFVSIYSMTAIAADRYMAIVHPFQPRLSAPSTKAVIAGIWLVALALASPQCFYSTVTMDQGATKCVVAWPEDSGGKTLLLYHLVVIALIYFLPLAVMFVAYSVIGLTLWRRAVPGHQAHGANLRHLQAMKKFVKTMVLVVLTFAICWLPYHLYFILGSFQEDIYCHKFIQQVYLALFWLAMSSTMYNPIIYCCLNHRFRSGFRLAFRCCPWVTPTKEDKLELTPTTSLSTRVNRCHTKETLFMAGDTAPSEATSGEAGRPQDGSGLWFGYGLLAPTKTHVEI
As to the kind of experiment: Binding affinity for NK-2 receptor was determined in a radioligand binding assay using chinese hamster ovary cells. Type of assay: cell-based.

Assay [6] deals with Cavia porcellus. Nature of the assay: Tested for the ability to inhibit substance P induced bronchoconstriction in guinea pig and the dose that was effective even after 40 minutes of compound administration, was reported. Type of assay: functional.
Assay [7] has as its target T1, Substance-K receptor. Nature of the assay: Antagonistic potency for NK-2 receptor was determined in vitro, using isolated rabbit pulmonary artery. Type of assay: functional. The conditions noted are these: read-out: pA2 (converted).
In assay [8] the target is T2, Neuromedin-K receptor. Nature of the assay: Antagonistic potency for NK-3 receptor was determined in vitro, using isolated rat portal vein. It is filed as functional. The following applies: read-out: pA2 (converted).

Where only a bound is given, the exact number is not on record here.

Sequence of Substance-P receptor (P25103 whole entry): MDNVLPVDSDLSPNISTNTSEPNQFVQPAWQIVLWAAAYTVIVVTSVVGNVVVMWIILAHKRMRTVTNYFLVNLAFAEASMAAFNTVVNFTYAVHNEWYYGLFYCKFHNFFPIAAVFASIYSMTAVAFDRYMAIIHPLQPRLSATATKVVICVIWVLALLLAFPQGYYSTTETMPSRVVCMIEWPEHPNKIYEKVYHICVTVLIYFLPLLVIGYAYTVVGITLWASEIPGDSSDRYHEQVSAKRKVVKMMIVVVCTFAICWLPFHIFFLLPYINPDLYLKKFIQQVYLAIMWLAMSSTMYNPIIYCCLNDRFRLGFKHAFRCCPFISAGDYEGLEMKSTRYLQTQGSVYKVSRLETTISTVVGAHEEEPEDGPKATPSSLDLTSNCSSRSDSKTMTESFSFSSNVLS

In the case of `O=C(OCc1cc(C(F)(F)F)cc(C(F)(F)F)c1)[C@H](Cc1c[nH]c2ccccc12)NC(=O)[C@H]1C[C@H](O)CN1C(=O)c1cn(CCCCc2nnn[n-]2)c2ccccc12.[K+]`, in the assay on Cavia porcellus [1], the ED50 was determined as 0.05 µmol/kg. Further, the figures for the Effective dose in the assay filed under Cavia porcellus [2] and in the assay on Cavia porcellus [6] were 0.026 mg/kg and 0.5 mM, respectively. The Ki on Substance-P receptor was found to be 0.0024 µM; at Substance-K receptor [5] it was 4.2 µM. Also, the pA2 was determined as 5.2 on Substance-K receptor [3] and 5.5 at Neuromedin-K receptor [4].
For the compound `CC(=O)N[C@@H](Cc1c[nH]c2ccccc12)C(=O)OCc1cc(C(F)(F)F)cc(C(F)(F)F)c1` [L-732138], the Kb at Substance-K receptor [7] and at Neuromedin-K receptor [8] was 6.31 µM throughout.
As for `COc1ccccc1CN[C@H]1CCCN[C@H]1c1ccccc1` [CP-99994], the ED50 in the assay listed under Cavia porcellus [2] (read-out: ID50 (the source's name)) amounted to 0.014 mg/kg. Besides, the Kb at Substance-K receptor [7] and on Neuromedin-K receptor [8] was over 100 µM in each case.
For the compound `CN(Cc1ccccc1)C(=O)[C@H](Cc1ccc2ccccc2c1)NC(=O)[C@H]1C[C@H](O)CN1C(=O)c1cn(CCCCc2nnn[nH]2)c2ccccc12`, the values for the pA2 at Substance-K receptor [3] and on Neuromedin-K receptor [4] were 5.6 and 5, respectively. The affinity at Substance-K receptor [5] corresponds to a Ki of 2.4 µM.

Values taken from ChEMBL document CHEMBL1130564, “The dipeptide neurokinin-1 receptor antagonist S19752 is a potent and long-acting inhibitor of bronchoconstriction when administered by aerosol to the guinea pig in vivo” (Bioorg Med Chem Lett, 1997).
